# Laboratory results published in PMC9632963, “Preclinical characterization and phase I clinical trial of CT053PTSA targets MET, AXL, and VEGFR2 in patients with advanced solid tumors” (Frontiers in Immunology, 2022).
# Like-named read-outs stand apart in the source and are kept apart here.
# Test: Phase I trial: clinical pharmacokinetics in plasma
# Type: in vivo, human
# Details: for AUC(0-inf) / Cmax / AUC(0-t) / AUC / half-life / Tmax / Vd/F: human, plasma; for AUC(0-t): read-out: AUC0-168; for AUC: read-out: AUC0-τ; for Vd/F: read-out: Vz/F
# Experimental: A clinical pharmacokinetic study of CT053PTSA was performed for both single doses and multiple doses. Blood samples were collected from each subject at prespecified times before and after single-dose administration (systemic blood samples: before treatment and 0.5, 1, 2, 3, 4, 5, 8, 12, 24, 36, 48, 72, 120 and 168 hours after treatment) and during multiple dosing (cycle 1 before treatment on Days 8, 15 and 22, as well as systemic blood samples on Day 28). […]
# Statistical analysis of CT053-treated tumors versus vehicle-treated tumors or versus nontreated tumors was performed by repeated-measures ANOVA. The data from the tumor xenograft models were expressed as the means ± standard error of the mean (SEM) and were plotted as a function of time. Noncompartmental pharmacokinetic analysis was performed using Phoenix WinNonlin Version 6.2.1 (Certara Inc., NJ, USA). Demographics and laboratory results of all the subjects were summarized using descriptive statistics. The pharmacokinetic parameters Tmax and T1/2 were shown as the median (min, max) and mean ± SD, respectively. A two-sided P < 0.05 was considered to indicate statistical significance. Statistical analysis was performed by using GraphPad Prism 5.0 (GraphPad Prism, RRID : SCR_002798) and SPSS software version 19.0 (SPSS, RRID : SCR_002865).
# [1] = oral, 15 mg, Multiple doses day 28, 15 mg, n=1
# [2] = oral, 15 mg, Single dose day 1, 15 mg, n=1
# [3] = oral, 30 mg, Multiple doses day 28, 30 mg, n=1
# [4] = oral, 30 mg, Single dose day 1, 30 mg, n=1
# [5] = oral, 60 mg, Multiple doses day 28, 60 mg, n=3, Geometric Mean (CV%)
# [6] = oral, 60 mg, Single dose day 1, 60 mg, n=5, Geometric Mean (CV%)
# [7] = oral, 100 mg, Multiple doses day 28, 100 mg, n=5, Geometric Mean (CV%)
# [8] = oral, 100 mg, Single dose day 1, 100 mg, n=7, Geometric Mean (CV%)
# [9] = oral, 150 mg, Multiple doses day 28, 150 mg, n=1
# [10] = oral, 150 mg, Single dose day 1, 150 mg, n=4, Geometric Mean (CV%)
compound,measurement,setting,value
Cc1c(C(=O)Nc2ccc(Oc3ccnc4cc(OCC(C)(C)O)ccc34)c(F)c2)c(=O)n(-c2ccccc2)n1C [CT053PTSA],Cl/F,"Multiple doses day 28, 15 mg, n=1",1580 mL/h
same,Cl/F,"Multiple doses day 28, 30 mg, n=1",1090 mL/h
same,Cl/F,"Multiple doses day 28, 150 mg, n=1",4470 mL/h
same,Cl/F,"Single dose day 1, 15 mg, n=1",2420 mL/h
same,Cl/F,"Single dose day 1, 30 mg, n=1",1000 mL/h
same,steady state reached,daily dosing,≤ 8 days
same,AUC(0-inf),[1],24000 ng·h/mL
same,Cmax,[1],598 ng/mL
same,AUC(0-t),[1],23700 ng·h/mL
same,AUC,[1],9510 ng·h/mL
same,half-life,"oral, 15 mg, Multiple doses day 28, 15 mg, n=1, read-out: T1/2 (converted)",27.9 h
same,Tmax,"oral, 15 mg, Multiple doses day 28, 15 mg, n=1, read-out: Tmax",2 h
same,Vd/F,[1],63.5 L
same,AUC(0-inf),[2],6190 ng·h/mL
same,Cmax,[2],345 ng/mL
same,AUC(0-t),[2],6120 ng·h/mL
same,AUC,[2],3760 ng·h/mL
same,half-life,"oral, 15 mg, Single dose day 1, 15 mg, n=1, read-out: T1/2 (converted)",31.4 h
same,Tmax,"oral, 15 mg, Single dose day 1, 15 mg, n=1, read-out: Tmax",3 h
same,Vd/F,[2],110 L
same,AUC(0-inf),[3],84100 ng·h/mL
same,Cmax,[3],1790 ng/mL
same,AUC(0-t),[3],81200 ng·h/mL
same,AUC,[3],27600 ng·h/mL
same,half-life,"oral, 30 mg, Multiple doses day 28, 30 mg, n=1, read-out: T1/2 (converted)",38.4 h
same,Tmax,"oral, 30 mg, Multiple doses day 28, 30 mg, n=1, read-out: Tmax",2 h
same,Vd/F,[3],60.2 L
same,AUC(0-inf),[4],29900 ng·h/mL
same,Cmax,[4],796 ng/mL
same,AUC(0-t),[4],29100 ng·h/mL
same,AUC,[4],12300 ng·h/mL
same,half-life,"oral, 30 mg, Single dose day 1, 30 mg, n=1, read-out: T1/2 (converted)",31.9 h
same,Tmax,"oral, 30 mg, Single dose day 1, 30 mg, n=1, read-out: Tmax",3 h
same,Vd/F,[4],46.2 L
same,AUC(0-inf),[5],91100 ng·h/mL
same,Cmax,[5],2720 ng/mL
same,AUC(0-t),[5],89700 ng·h/mL
same,AUC,[5],37000 ng·h/mL
same,Vd/F,[5],60.5 L
same,half-life,"oral, 60 mg, Multiple doses day 28, 60 mg, n=3, Mean ± SD, read-out: T1/2 (converted)",26.1 ± 4.5 h
same,Tmax,"oral, 60 mg, Multiple doses day 28, 60 mg, n=3, Median (Min, Max), read-out: Tmax",2 h
same,AUC(0-inf),[6],29200 ng·h/mL
same,Cmax,[6],1340 ng/mL
same,AUC(0-t),[6],28700 ng·h/mL
same,AUC,[6],13700 ng·h/mL
same,Vd/F,[6],71.8 L
same,half-life,"oral, 60 mg, Single dose day 1, 60 mg, n=5, Mean ± SD, read-out: T1/2 (converted)",24.7 ± 5.7 h
same,Tmax,"oral, 60 mg, Single dose day 1, 60 mg, n=5, Median (Min, Max), read-out: Tmax",2 h
same,AUC(0-inf),[7],156000 ng·h/mL
same,Cmax,[7],4330 ng/mL
same,AUC(0-t),[7],146000 ng·h/mL
same,AUC,[7],57300 ng·h/mL
same,Vd/F,[7],90.9 L
same,half-life,"oral, 100 mg, Multiple doses day 28, 100 mg, n=5, Mean ± SD, read-out: T1/2 (converted)",38.2 ± 14.3 h
same,Tmax,"oral, 100 mg, Multiple doses day 28, 100 mg, n=5, Median (Min, Max), read-out: Tmax",2 h
same,AUC(0-inf),[8],57700 ng·h/mL
same,Cmax,[8],1890 ng/mL
same,AUC(0-t),[8],56000 ng·h/mL
same,AUC,[8],24400 ng·h/mL
same,Vd/F,[8],79.8 L
same,half-life,"oral, 100 mg, Single dose day 1, 100 mg, n=7, Mean ± SD, read-out: T1/2 (converted)",32.8 ± 8.5 h
same,Tmax,"oral, 100 mg, Single dose day 1, 100 mg, n=7, Median (Min, Max), read-out: Tmax",2 h
same,AUC(0-inf),[9],50600 ng·h/mL
same,Cmax,[9],2930 ng/mL
same,AUC(0-t),[9],50500 ng·h/mL
same,AUC,[9],33600 ng·h/mL
same,half-life,"oral, 150 mg, Multiple doses day 28, 150 mg, n=1, read-out: T1/2 (converted)",13.8 h
same,Tmax,"oral, 150 mg, Multiple doses day 28, 150 mg, n=1, read-out: Tmax",2 h
same,Vd/F,[9],88.7 L
same,AUC(0-inf),[10],68500 ng·h/mL
same,Cmax,[10],2970 ng/mL
same,AUC(0-t),[10],65500 ng·h/mL
same,AUC,[10],30500 ng·h/mL
same,Vd/F,[10],99.8 L
same,half-life,"oral, 150 mg, Single dose day 1, 150 mg, n=4, Mean ± SD, read-out: T1/2 (converted)",33.9 ± 13.7 h
same,Tmax,"oral, 150 mg, Single dose day 1, 150 mg, n=4, Median (Min, Max), read-out: Tmax",2.5 h
same,Tmax,"po, multiple doses, oral, read-out: median Tmax",2 h
same,half-life,"po, multiple oral doses, read-out: mean half-life, range over cohorts",13.8 to 38.4 h
same,Tmax,"po, single dose, oral, read-out: median Tmax",2 to 3 h
same,half-life,"po, single oral dose, read-out: mean half-life, range over cohorts",24.7 to 33.9 h
